Assay results: the OPERA property sets (Mansouri et al. 2018)

For O=[N+]([O-])c1ccc(O[C@@H]2O[C@H](CO)[C@H](O)[C@H](O)[C@H]2O)cc1, the melting point was 189 °C.
Molecule FC(F)(F)C1(F)OC1(F)F (stereo unspecified) has a boiling point of -27.4 °C.
Molecule O=c1c2ccccc2ccc2ccccc12 has a melting point of 88.5 °C.
Molecule CCOC(=O)C=CCC(=O)OCC has a boiling point of 237 °C.
Work on CCSCc1ccccc1OC(=O)NC yielded a log10 vapour pressure (mmHg) of -5.15 and a melting point of 33.4 °C.
For CC(C)C(C)C(C)(C)C (stereo unspecified), the boiling point was 133 °C, the log10 vapour pressure (mmHg) was 1.1 and the melting point was -121 °C.
Molecule Cc1coc(C)n1 has a boiling point of 108 °C.
In the case of C1=CCCCC1, the boiling point is reported as 82.9 °C, the log10 Henry constant (atm·m³/mol) is reported as -1.34 and the log10 Koa is reported as 2.83. For the same molecule, the log10 vapour pressure (mmHg) was 1.95, the melting point was -104 °C and the ready biodegradability was “not readily biodegradable”.
Molecule CCOc1cc(C(C)(C)C)ccc1C1COC(c2c(F)cccc2F)=N1 (stereo unspecified) has a log10 vapour pressure (mmHg) of -7.79 and a melting point of 102 °C.
Molecule CC(C=CC=CC(C)=CC=CC(C)=CC=C1C(C)=CC(=O)CC1(C)C)=CC=CC(C)=CC=C1C(C)=CC(=O)CC1(C)C has a melting point of 219 °C.
CC(CCl)OC(C)CCl (stereo unspecified) showed a boiling point of 187 °C, a log10 Koc (L/kg) of 1.67 and a log10 vapour pressure (mmHg) of -0.252. For the same molecule, the melting point was -97 °C and the ready biodegradability was “not readily biodegradable”.
Molecule Cc1ccc(C)c2c1C(=O)c1ccccc1C2=O has a melting point of 140 °C.
CC(C)C(=O)Cl gave a boiling point of 92 °C and a melting point of -90 °C.
N#Cc1cccc(C(F)(F)F)c1 showed a boiling point of 189 °C and a melting point of 14.5 °C.
CCCCCCCC(=O)OCCCCCC showed a boiling point of 277 °C and a melting point of -30.6 °C.
Work on CCC(c1ccc(O)cc1)c1ccc(O)cc1 yielded a melting point of 132 °C.
CCCC(C)(CC)CCC gave a boiling point of 161 °C.
Work on CC(CC(C)(C)C)CC(C)(C)C yielded a boiling point of 178 °C and a melting point of -67 °C.
In the case of c1ccc2oc(-c3ccc(-c4nc5ccccc5o4)s3)nc2c1, the melting point is reported as 219 °C.
Work on COc1c2c(cc3oc(=O)ccc13)OC(C)(C)C=C2 yielded a melting point of 133 °C.
With CC(F)F the boiling point was -24.9 °C, the log10 Henry constant (atm·m³/mol) was -1.69 and the log10 vapour pressure (mmHg) was 3.66. The melting point was -117 °C.
Work on CC1CCCC(C)C1O (stereo unspecified) yielded a boiling point of 176 °C and a melting point of 32.5 °C.
In the case of CCCCCCCCSCCO, the log10 vapour pressure (mmHg) is reported as -3.23 and the melting point is reported as 0 °C.
O=C(Cl)CCC(=O)Cl gave a boiling point of 193 °C, a log10 vapour pressure (mmHg) of -0.432 and a melting point of 20 °C.
Work on CC(C)(CCl)c1ccccc1 yielded a boiling point of 223 °C.
With CC(Br)C(C)(Br)Br (stereo unspecified) the boiling point was 206 °C and the melting point was 1.8 °C.
Work on COc1cc(C(=O)OCCCN(C)CCN(C)CCCOC(=O)c2cc(OC)c(OC)c(OC)c2)cc(OC)c1OC yielded a melting point of 76 °C.
With N=CN the melting point was 81 °C.
For Oc1c(C2CCCCC2)cccc1C1CCCCC1, the ready biodegradability was “not readily biodegradable”.
Cc1ccsc1 gave a boiling point of 116 °C, a log10 vapour pressure (mmHg) of 1.35 and a melting point of -69 °C. The ready biodegradability was “not readily biodegradable”.
With Brc1ccc2c(c1)Cc1ccccc1-2 the melting point was 114 °C.
COc1ccc(C2C(=O)c3ccccc3C2=O)cc1 gave a melting point of 156 °C.
Work on CN1C[C@@H]2C[C@H](C1)c1cccc(=O)n1C2 yielded a melting point of 137 °C.
Oc1ccccc1-c1ccccc1 showed a boiling point of 286 °C, a log10 vapour pressure (mmHg) of -2.7 and a melting point of 59 °C. For the same molecule, the ready biodegradability was “readily biodegradable”.
Molecule N#Cc1c(F)cccc1F has a melting point of 31 °C.
With CC(CCO)C(F)(F)F (stereo unspecified) the boiling point was 140 °C.
With COc1ccc(Cn2cncn2)cc1 the melting point was 41.5 °C.
For CCCOC(=O)c1ccccc1, the boiling point was 211 °C, the log10 vapour pressure (mmHg) was -0.867 and the melting point was -51.6 °C.
For CC(C)S[C@@H]1O[C@H](CO)[C@H](O)[C@H](O)[C@H]1O, the melting point was 121 °C.
With CC(C)c1ccc(C(C)C)cc1 the boiling point was 210 °C, the log10 vapour pressure (mmHg) was -0.609 and the melting point was -17 °C. The ready biodegradability was “not readily biodegradable”.
With CCCC(=O)N(C)C the boiling point was 186 °C and the melting point was -40 °C.
Work on Cc1ccc(C(=O)c2ccccc2)cc1 yielded a melting point of 59.5 °C.
Cc1c(CN2CCOC(c3ccccc3)C2C)c(=O)n(-c2ccccc2)n1C (stereo unspecified) gave a melting point of 150 °C.
Brc1ccc(Oc2ccc(Br)cc2Br)c(Br)c1 showed a log10 Koa of 10.5, a log10 vapour pressure (mmHg) of -7.15 and a logP of 6.81.
With CCCCCCNC(=O)C=Cc1ccc(O)c(O)c1 the melting point was 142 °C.
CC1(C)C(C=C(Cl)Cl)C1C(=O)OC(C#N)c1cccc(Oc2ccccc2)c1 (stereo unspecified) gave a log10 Koc (L/kg) of 5 and a melting point of 81.3 °C.
In the case of C1=COCCO1, the boiling point is reported as 94.1 °C.
For CN(C)C(=O)Nc1ccccc1, the log10 Koc (L/kg) was 1.4, the log10 vapour pressure (mmHg) was -4.43 and the melting point was 134 °C. The ready biodegradability was “readily biodegradable”.
Molecule CC(NNC(=O)c1ccccc1)c1ccccc1 (stereo unspecified) has a melting point of 93.5 °C.
Molecule CC(C)CCOCc1ccccc1 has a boiling point of 237 °C.
Molecule Cc1ccc2ccccc2c1 has a boiling point of 241 °C, a log10 Henry constant (atm·m³/mol) of -3.29 and a log10 Koc (L/kg) of 3.6. It also gave a log10 biodegradation half-life (days) of 1.15, a log10 vapour pressure (mmHg) of -1.26 and a melting point of 34.4 °C.
With O=C(O)C1CCCCC1 the boiling point was 232 °C and the melting point was 31.5 °C.
Work on CC1CCCC(Br)C1 (stereo unspecified) yielded a boiling point of 181 °C.
For Ic1cccc(I)c1, the boiling point was 285 °C and the melting point was 40.4 °C.
For CC1C=CCC1 (stereo unspecified), the boiling point was 64.9 °C.
CCCN(CCC)C(=O)C(CCC(=O)O)NC(=O)c1ccccc1 (stereo unspecified) showed a melting point of 144 °C.
CCCCN(CC)C(=O)SCCC gave a boiling point of 202 °C, a log10 Koc (L/kg) of 2.8 and a log10 vapour pressure (mmHg) of -1.05. For the same molecule, the melting point was -22 °C and the ready biodegradability was “readily biodegradable”.
With CC(C)(C)C(=O)C(=O)O the boiling point was 189 °C and the melting point was 90.5 °C.
For O=C(NC(=O)c1c(F)cccc1F)Nc1ccc(CO/N=C(/c2ccc(Cl)cc2)C2CC2)cc1, the log10 vapour pressure (mmHg) was -9.39.
In the case of CCOC(=O)CC(=O)CCl, the melting point is reported as -8 °C.
For CCCCCCCCCCCCCCCCCCOP(OCCCCCCCCCCCCCCCCCC)OCCCCCCCCCCCCCCCCCC, the ready biodegradability was “readily biodegradable”.
For O=C(O)CNC(=S)C(=S)NCC(=O)O, the melting point was 220 °C.
In the case of FC(Cl)(Cl)C(F)(Cl)Cl, the boiling point is reported as 93 °C, the log10 vapour pressure (mmHg) is reported as 1.7 and the melting point is reported as 26 °C. For the same molecule, the ready biodegradability was “not readily biodegradable”.
